Assay results: ChEMBL document CHEMBL3886764, “Acetamide derivatives” (2016)

Target: Transient receptor potential cation channel subfamily A member 1 (Homo sapiens, UniProt O75762)
Experiment: Dose Response Assay: Compound plates were resuspended with 100 ul of HBSS/20 mM HEPES/0.005% BSA buffer (Compound Buffer): column 1A-H: buffer/DMSO (bk); column 2A-H: AP-18 (control antagonist for CHOK1 TRPA1 cells); column 1I-P: ATP (control for CHOK1 teton cells); column 2 I-P: 2APB (control antagonist for CHOK1/TRPM8 cells). Growth media was removed from the cell plates (20 ul) and 20 ul of the Replacement Buffer was added followed by addition of 25 ul of diluted dye. All three steps were performed using a Plate Washer BioTek 407. The plates were then incubated for 30' at RT. After incubation, both the cell and compound plates were brought to the FLIPR and 20 ul of the diluted compounds/antagonist/bk were transferred to the cell plates by the FLIPR. Plates were then incubated for 30' at room temperature. After 30' incubation, plates were returned to the FLIPR and 20 ul of 4.5× Cinnamaldehyde was added to the cell plates. During the compound addition as well as agonist addition, fluorescence readings were taken simultaneously from all 384 wells of the cell plate every 1.5 seconds. Five readings were taken to establish a stable baseline, then 20 ul of sample was rapidly (30 ul/sec) and simultaneously added to each well of the cell plate. […]

Chain of Transient receptor potential cation channel subfamily A member 1 (O75762 whole entry): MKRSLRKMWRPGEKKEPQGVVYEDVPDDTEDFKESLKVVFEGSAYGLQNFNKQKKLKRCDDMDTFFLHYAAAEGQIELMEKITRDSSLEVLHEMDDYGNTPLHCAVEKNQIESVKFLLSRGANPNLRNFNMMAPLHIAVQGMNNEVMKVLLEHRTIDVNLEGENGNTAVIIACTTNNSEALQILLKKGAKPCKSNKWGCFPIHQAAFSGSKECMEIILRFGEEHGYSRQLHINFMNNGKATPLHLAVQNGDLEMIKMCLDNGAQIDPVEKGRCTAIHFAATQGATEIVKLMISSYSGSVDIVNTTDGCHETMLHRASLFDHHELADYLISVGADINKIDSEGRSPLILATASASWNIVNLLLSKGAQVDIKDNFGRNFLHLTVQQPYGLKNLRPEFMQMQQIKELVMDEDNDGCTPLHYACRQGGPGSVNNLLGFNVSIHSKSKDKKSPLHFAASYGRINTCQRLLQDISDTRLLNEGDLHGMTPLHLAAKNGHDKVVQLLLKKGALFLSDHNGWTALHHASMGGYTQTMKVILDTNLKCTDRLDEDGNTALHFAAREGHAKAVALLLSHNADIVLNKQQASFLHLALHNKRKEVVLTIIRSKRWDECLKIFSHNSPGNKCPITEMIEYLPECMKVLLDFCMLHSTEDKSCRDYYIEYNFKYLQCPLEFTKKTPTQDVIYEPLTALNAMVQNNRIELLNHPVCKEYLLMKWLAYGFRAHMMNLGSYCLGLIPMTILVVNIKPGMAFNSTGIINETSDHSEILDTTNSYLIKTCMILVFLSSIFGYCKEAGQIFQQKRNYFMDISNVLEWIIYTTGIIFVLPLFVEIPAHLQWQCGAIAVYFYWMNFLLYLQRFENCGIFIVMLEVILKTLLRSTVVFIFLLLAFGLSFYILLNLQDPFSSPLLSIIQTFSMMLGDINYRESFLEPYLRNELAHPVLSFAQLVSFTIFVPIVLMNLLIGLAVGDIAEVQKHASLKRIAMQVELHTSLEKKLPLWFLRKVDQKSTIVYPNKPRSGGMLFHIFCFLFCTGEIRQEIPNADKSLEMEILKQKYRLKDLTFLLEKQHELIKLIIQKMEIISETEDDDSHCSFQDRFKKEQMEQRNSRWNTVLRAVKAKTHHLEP

CN(CC(=O)NCC1CN(c2ccc(C(F)(F)F)cc2)CCO1)S(=O)(=O)c1ccc(F)cc1 (stereo unspecified)
IC50: 1.52 µM
